In patent US9382568B2, “Determining the sensitivity of a cell to a drug” (RANDOX LABORATORIES LTD., priority 2008, dated 2016):

Key:
[1] = tested on: NCTC 13427 (lux+ cdd deficient E. coli MG 1655 expressing human dCK); assay: Response of bioluminescent bacterial biosensor (growth OD600 and light output); assay type: cell-based
Source text: (§1) Bacterial Strains, Plasmids and Growth Media. E. coli SØ5218 is a cdd-deficient strain expressing the human dCK cDNA on the IPTG-inducible pTrc99-A plasmid. E. coli MG1655 is a derivative of the wild-type E. coli K-12 with a requirement for pyrimidine in minimal medium, due to suboptimal expression of the orotate phosphoribosyltransferase gene coded for by pyrE. Both strains were made self-bioluminescent by transforming them with the broad-host vector pBBR1MCS-2 carrying the luxCDABE cassette from Photorhabdus luminescens as an EcoRI PCR fragment. Luria-Bertani (LB) medium was used for routine culturing of bacteria. The antibiotics ampicillin (to maintain pTrc-A) and kanamycin (to maintain pBBR1MCS-2) were added at 100 and 10 μg/ml, respectively. Growth inhibition experiments were performed in LB RPMI 1640 or in minimal salt medium (AB) plus 0.2% glucose, 0.2% vitamin-free casamino acids and supplemented with thiamine and leucine.
Construction of a cdd-deficient strain of E. coli MG 1655. A library of E. coli MG 1655 strains was constructed using transposition mutagenesis with P1 phage carrying the Tn10 transposon. Mutants carrying the transposon were selected for by plating on tetracycline (10 μg/ml) agar plates and cdd mutants were selected for by plating on to plates containing 10 μg/ml of the analogue 5-fluoro-2′ deoxycytidine which is toxic to E. coli expressing cdd. The phenotype of cdd mutants was confirmed by the absence of cytidine deaminase activity.
In order to measure Ara-C response in a nutrient rich intracellular environment, an alternative cdd-deficient strain of a bioluminescent E. coli MG1655 mutant was constructed using transposon mutagenesis, which was further transformed with pTrc99-A, to give IPTG inducible expression of dCK. […] One possible explanation for the light increase is that the DNA damage caused by Ara-CTP induces bioluminescence that could be used in DNA repair by a photo-reactivation process.
In order to increase the specificity of the proposed assay, direct effects of the active intracellular drug derivative, Ara-CTP, on the bacterial biosensor were monitored (FIG. 3A). […] To verify this, the assay was repeated with the addition of alkaline phosphatase at the start.

E. coli SØ5218 [2] = assay: Growth of cdd-deficient E. coli mutant SØ5218 expressing human dCK; assay type: cell-based; details: rich growth medium (data not shown)
Source text: Ara-C has no effect on Escherichia coli as it lacks dCK and deaminates Ara-C into Ara-uracil through the activity of deoxycytidine deaminase (cdd). Wang et al., Antimicrob. Agents. […] The Ara-C effect on growth was completely abolished when assayed in the absence of the dCK inducible […], IPTG, indicating human dCK expression in the bacteria leads to Ara-CTP incorporation into bacterial DNA.
as §1, with “leucine. […]” for “leucine.”

KG-1a cells [3] = assay: Cell lysis assay with bioluminescent reporter bacteria, cell line; assay type: cell-based; details: KG-1a treated with 25 μM Ara-C, p=0.0001
Protocol: (§2) Cell lines, bone marrow and blood samples. The monocytic cell line KG-1a (DSMZ, Germany) was grown and maintained as a cell suspension in RPMI 1640 medium supplemented with 2 mM L-glutamine and 10% foetal calf serum. Mononuclear cell fractions were isolated from patient peripheral blood or bone marrow samples (n=8) using density gradient centrifugation (SG […]) followed by resuspension in RPMI 1640 medium prior to incubation with Ara-C. Cryopreserved bone marrow samples were thawed and re-suspended in RPMI 1640 medium prior to drug exposure.
(§3) Cell Lysis Assay. AML cell lines or patient derived samples were treated with 25 μM Ara-C for 90 min at 37° C. and 5% CO2, harvested, washed and resuspended in fresh RPMI 1640 medium. EDTA and saponin were added to final concentrations of 1.5 mM and 0.1%, respectively. Samples were then vortexed for 30 sec and cell debris were removed by centrifugation at 1027 g for 5 min. Samples from the lysate or supernatant were mixed with reporter bacteria, 1 mM of IPTG an 10 units of alkaline phosphatase. Bioluminescence and growth (OD600) of the bacteria were monitored in a multimode microplate reader. Sensitivity of AML cell lines or patient derived samples to Ara-C was also assayed using Cell Titer-Glo® Luminescent Cell Viability Assay kit (Promega). […]

KG-1a cells [4] = assay: Cell Titer-Glo luminescent cell viability (three day cytotoxicity) assay, cell line; assay type: cell-based; details: 25 μM Ara-C, 72 hours
Protocol: as §2, §3

[5] = tested on: AML patient derived samples; assay: Cell Titer-Glo luminescent cell viability (cytotox) assay, patient samples; assay type: cell-based, human; details: 25 μM Ara-C 72 hours
Protocol: as §2
(§4) Cell Lysis Assay. AML cell lines or patient derived samples were treated with 25 μM Ara-C for 90 min at 37° C. and 5% CO2, harvested, washed and resuspended in fresh RPMI 1640 medium. EDTA and saponin were added to final concentrations of 1.5 mM and 0.1%, respectively. Samples were then vortexed for 30 sec and cell debris were removed by centrifugation at 1027 g for 5 min. Samples from the lysate or supernatant were mixed with reporter bacteria, 1 mM of IPTG an 10 units of alkaline phosphatase. Bioluminescence and growth (OD600) of the bacteria were monitored in a multimode microplate reader. Sensitivity of AML cell lines or patient derived samples to Ara-C was also assayed using Cell Titer-Glo® Luminescent Cell Viability Assay kit (Promega). Samples were treated with 25 μM Ara-C for 72 hours at 37° C. and 5% CO2 before measuring intracellular levels of ATP according to manufacturer's instructions. Paired t-tests were used to analyse significant differences in bioluminescence output between control and treated assay samples.

[6] = tested on: AML patient derived samples; assay: Cell lysis assay with bioluminescent reporter bacteria, patient samples; assay type: cell-based, human; details: for Bioluminescent Assay (sensitive): 25 μM Ara-C 90 min; for Treatment % difference in peak RLU a) L:LI / Treatment % difference in peak RLU b) L:LIP / Treatment % difference in peak RLU c) LI:LIP: drug treated minus control
Protocol: as §2, §4
A representation of light output during the bioluminescent assay for patients who are metabolic sensitive, metabolic resistant, metabolic partially resistant and uptake resistant is shown in FIG. 5.
Table 3 validates the application of the bioluminescent assay using relative percentage differences in peak light output from the various treatments to identify resistant and sensitive patients. Data shown in Table 3 is computed according to the equation {[RLU drug treated sample (LIP/LI)−RLU control (LIP/LI)]×100}, using c) as an example.

AML [7] = assay: Clinical outcome of AML patients (Ara-C used in induction therapy); assay type: in vivo, human; design: key: NR = No remission; CR = Complete remission
Protocol: The assay was evaluated using a KG-1a cell line and AML samples from patients with known response to Ara-C used in induction therapy. FIG. 6 depicts the light output from the lysate of the Ara-C sensitive cell line KG-1a treated with high (25 μM) Ara-C concentrations. […] The three day cytotoxicity test confirmed that KG-1a cells are sensitive to Ara-C.
The cell lysis assay was applied to clinical samples of peripheral blood ([…]) from AML patients. These preliminary assays, conducted on 7 clinical samples, gave 100% correlation with clinical response to therapy.

E. coli SØ5218 [8] = details: upon expression of human dCK gene (IPTG), Wang et al. 1998; cited from earlier work
Escherichia coli = details: lacks dCK, deaminates Ara-C via cdd; cited from earlier work
AML [9] = assay: Clinical outcome of AML patients (Ara-C used in induction therapy); assay type: in vivo, human; design: key: NR = No remission; CR = Complete remission; details: Table 2 patient 4, diagnosis M4
[10] = Table 2 patient 1, diagnosis M2
[11] = Table 2 patient 2, diagnosis M4
[12] = Table 2 patient 3, diagnosis M2
[13] = Table 2 patient 4, diagnosis M4
[14] = Table 2 patient 5, diagnosis M4
[15] = Table 2 patient 6, diagnosis M0
[16] = Table 2 patient 7, diagnosis M3

In the case of `Nc1ccn([C@@H]2O[C@H](CO)[C@@H](O)[C@@H]2O)c(=O)n1` [Ara-C], the “light output (bioluminescence, RLU) of reporter strain” value ([1]; drug-treated cultures, IPTG present, p=0.0001) is reported as “significant increase in light output”, the “growth (OD600) of reporter strain” value ([1]; in the presence of Ara-C, induced by IPTG, nutrient rich medium) is reported as “reduced growth” and the “lowest concentration the bacterial biosensor responds to” value ([1]; low concentrations of Ara-C, FIG. 2) is reported as 0.05 µM. For the same molecule, the “response of SØ5218” value (E. coli SØ5218 [2]) was “did not respond”, the “light output from IPTG-induced lysate with BAP” value (KG-1a cells [3]) was “significant increase in the light output” and the “light output from IPTG-induced lysate without BAP” value (KG-1a cells [3]) was “significant increase in the light output”. The “three day cytotoxicity test” value (KG-1a cells [4]) was “sensitive”, the “Cytotox Assay (DLO)” value [5, 10] was 84% and the “Cytotox Assay (DLO)” value [5, 11] was 99%. For the same molecule, the “Cytotox Assay (DLO)” value [5, 12] was 79%, the “Cytotox Assay (DLO)” value [5, 13] was 99% and the “Cytotox Assay (DLO)” value [5, 14] was 62%. For the same molecule, the “Cytotox Assay (DLO)” value [5, 15] was 5%, the “Cytotox Assay (DLO)” value [5, 16] was 91% and the “Bioluminescent Assay (sensitive)” value [6, 10] was “No”. The “Bioluminescent Assay (sensitive)” value [6, 11] was “Yes”, the “Bioluminescent Assay (sensitive)” value [6, 12] was “No” and the “Bioluminescent Assay (sensitive)” value [6, 13] was “Yes”. For the same molecule, the “Bioluminescent Assay (sensitive)” value [6, 14] was “No”, the “Bioluminescent Assay (sensitive)” value [6, 15] was “No” and the “Bioluminescent Assay (sensitive)” value [6, 16] was “No”. For the same molecule, the “interaction of the drug with the patient sample (uptake and metabolism category)” value (“interaction of the drug” for short) ([6]; Table 3 patient 1) was “take up and metabolise the drug”, the “Treatment % difference in peak RLU a) L:LI” value ([6]; Table 3 patient 1) was −10.25% and the “Treatment % difference in peak RLU b) L:LIP” value ([6]; Table 3 patient 1) was 19.20%. For the same molecule, the “Treatment % difference in peak RLU c) LI:LIP” value ([6]; Table 3 patient 1) was 24.19%, the “interaction of the drug” value ([6]; Table 3 patient 2) was “take up and metabolise the drug” and the “Treatment % difference in peak RLU a) L:LI” value ([6]; Table 3 patient 2) was −4.00%. For the same molecule, the “Treatment % difference in peak RLU b) L:LIP” value ([6]; Table 3 patient 2) was 62.40%, the “Treatment % difference in peak RLU c) LI:LIP” value ([6]; Table 3 patient 2) was 48.03% and the “interaction of the drug” value ([6]; Table 3 patient 3) was “takes up but does not metabolise the drug”. The “Treatment % difference in peak RLU a) L:LI” value ([6]; Table 3 patient 3) was −81.04%, the “Treatment % difference in peak RLU b) L:LIP” value ([6]; Table 3 patient 3) was −120.00% and the “Treatment % difference in peak RLU c) LI:LIP” value ([6]; Table 3 patient 3) was −4.51%. The “interaction of the drug” value ([6]; Table 3 patient 4, not clinically confirmed) was “resistant to take up of the drug”, the “Treatment % difference in peak RLU a) L:LI” value ([6]; Table 3 patient 4) was 2.28% and the “Treatment % difference in peak RLU b) L:LIP” value ([6]; Table 3 patient 4) was 3.28%. For the same molecule, the “Treatment % difference in peak RLU c) LI:LIP” value ([6]; Table 3 patient 4) was 0.88%, the “Treatment % difference in peak RLU a) L:LI” value ([6]; Table 3 patient 5) was −61.46% and the “Treatment % difference in peak RLU b) L:LIP” value ([6]; Table 3 patient 5) was −98.39%. The “Treatment % difference in peak RLU c) LI:LIP” value ([6]; Table 3 patient 5) was −13.87%, the “Treatment % difference in peak RLU a) L:LI” value ([6]; Table 3 patient 6) was −13.59% and the “Treatment % difference in peak RLU b) L:LIP” value ([6]; Table 3 patient 6) was −7.03%. For the same molecule, the “Treatment % difference in peak RLU c) LI:LIP” value ([6]; Table 3 patient 6) was 5.50%, the “Treatment % difference in peak RLU a) L:LI” value ([6]; Table 3 patient 7) was −16.37% and the “Treatment % difference in peak RLU b) L:LIP” value ([6]; Table 3 patient 7) was −16.37%. The “Treatment % difference in peak RLU c) LI:LIP” value ([6]; Table 3 patient 7) was 1.20%, the “Clinical Outcome” value (AML [7]; [10]) was “NR” and the “Clinical Outcome” value (AML [7]; [11]) was “CR”. The “Clinical Outcome” value (AML [7]; [12]) was “NR”, the “Clinical Outcome” value (AML [7]; [14]) was “NR” and the “Clinical Outcome” value (AML [7]; [15]) was “NR”. The “Clinical Outcome” value (AML [7]; Table 2 patient 7, diagnosis M3 (Remission, death)) was “Remission”, the “Clinical Outcome” value (AML [7]; Table 3 patient 1) was “sensitive” and the “Clinical Outcome” value (AML [7]; Table 3 patient 2) was “sensitive”. The “Clinical Outcome” value (AML [7]; Table 3 patient 3) was “resistant”, the “Clinical Outcome” value (AML [7]; Table 3 patient 7) was “resistant” and the “relative growth of SØ5218” value (E. coli SØ5218 [8]) was “reduced relative growth”. For the same molecule, the “effect on Escherichia coli” value (Escherichia coli) was “no effect” and the “Clinical Outcome” value (AML [9]) was “CR”.

For `Nc1ccn([C@@H]2O[C@H](COP(=O)(O)OP(=O)(O)OP(=O)(O)O)[C@@H](O)[C@@H]2O)c(=O)n1` [Ara-CTP], the “direct entry into reporter bacteria” value ([1]; Ara-CTP added without alkaline phosphatase, FIG. 3A) was “does not directly enter reporter bacteria”, the “time after which increase in light output was evident” value ([1]; alkaline phosphatase added at the start, FIG. 3B) was 3 to 5 h and the “time of growth after which increase in light output was observed” value ([1]; no alkaline phosphatase added) was “at least 15 h”.
